Experimental findings from ChEMBL document CHEMBL1909046, “DrugMatrix in vitro pharmacology data” are described below.

What is called IC50 is the concentration that inhibits the measured activity by half. Usually Ki stands for a measure of affinity in units of concentration, obtained from inhibition or displacement.

The target of data set [1] is 5-hydroxytryptamine receptor 2B (Homo sapiens, UniProt P41595). Format: cell membranes, CHO-K1, Membrane. Also: in other assays of this panel Not Active means under 50% inhibition at 10 µM.
Sequence of 5-hydroxytryptamine receptor 2B (P41595 whole entry): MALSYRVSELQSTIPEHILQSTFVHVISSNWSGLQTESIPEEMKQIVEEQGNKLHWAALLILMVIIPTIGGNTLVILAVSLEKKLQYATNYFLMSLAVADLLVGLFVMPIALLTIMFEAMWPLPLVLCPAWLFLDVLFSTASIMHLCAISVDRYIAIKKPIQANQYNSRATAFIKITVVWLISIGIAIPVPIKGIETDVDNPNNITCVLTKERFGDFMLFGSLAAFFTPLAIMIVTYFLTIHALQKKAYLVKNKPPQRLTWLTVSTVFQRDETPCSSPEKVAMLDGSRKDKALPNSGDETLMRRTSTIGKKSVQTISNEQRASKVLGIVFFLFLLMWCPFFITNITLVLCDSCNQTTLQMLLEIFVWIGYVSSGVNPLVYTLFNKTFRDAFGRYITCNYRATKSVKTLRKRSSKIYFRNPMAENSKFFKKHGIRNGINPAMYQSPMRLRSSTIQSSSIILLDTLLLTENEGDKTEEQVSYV
Another data set concerns the target Cannabinoid receptor 1 (Homo sapiens, UniProt P21554). Format: cell membranes, Chem-1, Membrane. To be noted: chem-1. Also: in other assays of this panel Not Active means under 50% inhibition at 10 µM.
In a further data set the target is Melanocortin receptor 5 (Homo sapiens, UniProt P33032). The data set is classed as cell membranes, HEK293, Membrane. The conditions noted are these: hek293. Also: in other assays of this panel Not Active means under 50% inhibition at 10 µM.
Sequence of Melanocortin receptor 5 (P33032 whole entry): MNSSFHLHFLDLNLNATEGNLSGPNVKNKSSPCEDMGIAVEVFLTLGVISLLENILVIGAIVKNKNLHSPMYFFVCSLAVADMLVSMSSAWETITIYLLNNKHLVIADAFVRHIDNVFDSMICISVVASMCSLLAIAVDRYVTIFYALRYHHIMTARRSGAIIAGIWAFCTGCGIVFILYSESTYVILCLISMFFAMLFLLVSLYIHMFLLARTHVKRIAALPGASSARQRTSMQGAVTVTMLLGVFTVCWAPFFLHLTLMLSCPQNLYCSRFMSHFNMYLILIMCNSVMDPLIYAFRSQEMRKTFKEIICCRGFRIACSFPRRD
Data set [2] is described as follows: DRUGMATRIX: Phosphodiesterase PDE3 enzyme inhibition (substrate: [3H]cAMP + cAMP). The data set is classed as tissue-based, Homo sapiens. The conditions noted are these: platelet; Not Active = under 50% inhibition at 10 µM.
The target in data set [3] is 5-hydroxytryptamine receptor 1B (Rattus norvegicus, UniProt P28564). The data set is classed as cell membranes, Wistar, Cerebral cortex, Membrane. Also: in other assays of this panel Not Active means under 50% inhibition at 10 µM.
Sequence of 5-hydroxytryptamine receptor 1B (P28564 whole entry): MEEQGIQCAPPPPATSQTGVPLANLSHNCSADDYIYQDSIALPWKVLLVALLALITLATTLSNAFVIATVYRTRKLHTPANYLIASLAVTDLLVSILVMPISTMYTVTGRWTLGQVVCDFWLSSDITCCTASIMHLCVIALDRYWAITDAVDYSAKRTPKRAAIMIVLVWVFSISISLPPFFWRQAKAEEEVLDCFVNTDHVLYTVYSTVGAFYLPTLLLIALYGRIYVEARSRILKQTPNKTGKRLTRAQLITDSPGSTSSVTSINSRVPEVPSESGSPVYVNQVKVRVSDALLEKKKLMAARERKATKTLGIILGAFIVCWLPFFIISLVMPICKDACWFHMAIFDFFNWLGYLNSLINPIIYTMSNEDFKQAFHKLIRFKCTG
The target in a further data set is Cytochrome P450 2C9 (Homo sapiens, UniProt P11712). To be noted: bti-tn-5b1-4. Also: in other assays of this panel Not Active means under 50% inhibition at 10 µM.
Sequence of Cytochrome P450 2C9 (P11712 whole entry): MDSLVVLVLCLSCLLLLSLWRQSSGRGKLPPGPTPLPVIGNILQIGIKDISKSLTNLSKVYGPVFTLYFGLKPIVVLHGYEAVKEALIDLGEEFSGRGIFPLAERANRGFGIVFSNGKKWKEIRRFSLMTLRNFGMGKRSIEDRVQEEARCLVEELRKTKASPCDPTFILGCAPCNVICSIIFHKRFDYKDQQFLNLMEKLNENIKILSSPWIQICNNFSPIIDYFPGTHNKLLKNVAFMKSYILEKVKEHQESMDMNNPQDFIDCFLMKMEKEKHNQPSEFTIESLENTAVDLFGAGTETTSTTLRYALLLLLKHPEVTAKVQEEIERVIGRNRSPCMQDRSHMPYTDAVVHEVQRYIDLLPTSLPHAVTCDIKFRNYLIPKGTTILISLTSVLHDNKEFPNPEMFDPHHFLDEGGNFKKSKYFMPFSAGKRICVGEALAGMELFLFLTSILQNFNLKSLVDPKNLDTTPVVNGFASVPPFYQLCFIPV

Sequence of Cannabinoid receptor 1 (P21554 whole entry): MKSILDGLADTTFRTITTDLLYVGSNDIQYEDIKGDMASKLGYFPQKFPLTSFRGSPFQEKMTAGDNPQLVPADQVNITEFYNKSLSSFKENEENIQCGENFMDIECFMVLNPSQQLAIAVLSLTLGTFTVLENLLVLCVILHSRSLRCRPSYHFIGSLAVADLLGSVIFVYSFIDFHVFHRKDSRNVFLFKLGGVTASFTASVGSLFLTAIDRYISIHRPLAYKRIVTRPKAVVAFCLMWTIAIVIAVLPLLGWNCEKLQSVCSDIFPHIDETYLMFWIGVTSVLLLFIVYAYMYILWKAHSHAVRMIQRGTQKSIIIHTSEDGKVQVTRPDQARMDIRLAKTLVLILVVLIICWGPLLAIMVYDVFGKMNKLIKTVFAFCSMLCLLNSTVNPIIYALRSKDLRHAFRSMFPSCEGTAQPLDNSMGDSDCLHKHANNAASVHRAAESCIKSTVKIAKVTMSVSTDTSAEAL

With `CS(=O)(=O)c1ccc([C@@H](O)[C@@H](CO)NC(=O)C(Cl)Cl)cc1` [THIAMPHENICOL], the half-maximal inhibitory concentration (IC50) result (in data set [1] (cho-k1); at Cannabinoid receptor 1; against Melanocortin receptor 5; in data set [2]; in data set [3]; on Cytochrome P450 2C9) was “Not Active” in each case. In addition, the Ki entry (in data set [2]; on Cytochrome P450 2C9) was “Not Active” each time.

Take `O=C(Oc1ccccc1C(=O)O)c1ccccc1O` [SALSALATE]: the IC50 result (in data set [1] (cho-k1); against Cannabinoid receptor 1; on Melanocortin receptor 5; in data set [2]; in data set [3]; at Cytochrome P450 2C9) was “Not Active” each time. Also, the Ki entry (in data set [2]; on Cytochrome P450 2C9) was “Not Active” in each case.

Turning to `CC(C)NCC(O)c1ccc(NS(C)(=O)=O)cc1` (stereo not drawn) [SOTALOL], the IC50 result (in data set [1] (cho-k1); against Cannabinoid receptor 1; against Melanocortin receptor 5; in data set [2]; in data set [3]; against Cytochrome P450 2C9) was “Not Active” throughout. The Ki entry (in data set [2]; at Cytochrome P450 2C9) was “Not Active” each time.

With MANGANESE CHLORIDE ANHYDROUS, the IC50 entry (in data set [1] (cho-k1); at Cannabinoid receptor 1; at Melanocortin receptor 5; in data set [2]; in data set [3]; against Cytochrome P450 2C9) was “Not Active” in each case. Further, the Ki entry (in data set [1] (cho-k1); on Cannabinoid receptor 1; at Melanocortin receptor 5; in data set [2]; in data set [3]; on Cytochrome P450 2C9) was “Not Active” in each case.

As to `O.O.O.O.O.O.[Cl-].[Cl-].[Sr+2]` [STRONTIUM CHLORIDE HEXAHYDRATE], the IC50 entry (in data set [1] (cho-k1); at Cannabinoid receptor 1; against Melanocortin receptor 5; in data set [2]; in data set [3]; against Cytochrome P450 2C9) was “Not Active” each time. In addition, the Ki entry (in data set [2]; on Cytochrome P450 2C9) was “Not Active” throughout.

For `Nc1cc(N2CCCCC2)nc(N)[n+]1[O-]` [MINOXIDIL], the IC50 entry (in data set [1] (cho-k1); against Cannabinoid receptor 1; on Melanocortin receptor 5; in data set [2]; in data set [3]; against Cytochrome P450 2C9) was “Not Active” throughout. The Ki result (in data set [2]; on Cytochrome P450 2C9) was “Not Active” throughout.

For the compound `CO[C@H]1/C=C/O[C@@]2(C)Oc3c(C)c(O)c4c(O)c(c(/C=N/N5CCN(C6CCCC6)CC5)c(O)c4c3C2=O)NC(=O)/C(C)=C\C=C\[C@H](C)[C@H](O)[C@@H](C)[C@@H](O)[C@@H](C)[C@H](OC(C)=O)[C@@H]1C` [RIFAPENTINE], the half-maximal inhibitory concentration (IC50) entry (in data set [1] (cho-k1); at Cannabinoid receptor 1; against Melanocortin receptor 5; in data set [2]; in data set [3]; on Cytochrome P450 2C9) was “Not Active” in each case. Moreover, the Ki entry (in data set [2]; at Cytochrome P450 2C9) was “Not Active” in each case.

`Cc1cccc(C)c1OCC(C)N` (stereo not drawn) [MEXILETINE]: the IC50 in data set [1] (read-out: IC50) was 1.14 µM; on Melanocortin receptor 5 it was “Not Active”; in data set [2], “Not Active”; in data set [3] it was “Not Active”; on Cytochrome P450 2C9, “Not Active”. The Ki was 0.724 µM in data set [1] (read-out: Ki), “Not Active” at Cannabinoid receptor 1, “Not Active” in data set [2] and “Not Active” on Cytochrome P450 2C9.

Regarding `COc1c2occc2cc2ccc(=O)oc12` [METHOXSALEN], the IC50 entry (in data set [1] (cho-k1); against Cannabinoid receptor 1; on Melanocortin receptor 5; in data set [2]; in data set [3]; at Cytochrome P450 2C9) was “Not Active” each time. Also, the Ki entry (in data set [2]; at Cytochrome P450 2C9) was “Not Active” throughout.

For `C[C@H]1C[C@@H]2[C@H]([C@@H](O)C[C@@]3(C)[C@H]2CC[C@]3(O)C(=O)CO)[C@@]2(C)C=CC(=O)C=C12` [METHYLPREDNISOLONE], the IC50 entry (in data set [1] (cho-k1); against Cannabinoid receptor 1; on Melanocortin receptor 5; in data set [2]; in data set [3]; against Cytochrome P450 2C9) was “Not Active” each time. Moreover, the Ki entry (in data set [2]; at Cytochrome P450 2C9) was “Not Active” in each case.

Consider `COc1cc2nc(N3CCN(C(=O)C4CCCO4)CC3)nc(N)c2cc1OC` (stereo not drawn) [TERAZOSIN], for which the IC50 result (in data set [1] (cho-k1); at Cannabinoid receptor 1; against Melanocortin receptor 5; in data set [2]; in data set [3]; against Cytochrome P450 2C9) was “Not Active” throughout. In addition, the Ki result (in data set [2]; at Cytochrome P450 2C9) was “Not Active” each time.

On to `CC(c1cc2ccccc2s1)N(O)C(N)=O` (stereo not drawn) [ZILEUTON], for which the IC50 result (in data set [1] (cho-k1); at Cannabinoid receptor 1; against Melanocortin receptor 5; in data set [2]; in data set [3]; against Cytochrome P450 2C9) was “Not Active” throughout. In addition, the Ki entry (in data set [2]; at Cytochrome P450 2C9) was “Not Active” in each case.

Consider `O=C1C(CC[S+]([O-])c2ccccc2)C(=O)N(c2ccccc2)N1c1ccccc1` (stereo not drawn) [SULFINPYRAZONE], for which the IC50 entry (in data set [1] (cho-k1); at Cannabinoid receptor 1; against Melanocortin receptor 5; in data set [2]; in data set [3]; against Cytochrome P450 2C9) was “Not Active” throughout. Also, the Ki entry (in data set [2]; on Cytochrome P450 2C9) was “Not Active” each time.

As for `CCN1CCC[C@H]1CNC(=O)c1cc(S(N)(=O)=O)ccc1OC` [LEVOSULPIRIDE], the half-maximal inhibitory concentration (IC50) result (in data set [1] (cho-k1); against Cannabinoid receptor 1; at Melanocortin receptor 5; in data set [2]; in data set [3]; against Cytochrome P450 2C9) was “Not Active” throughout. In addition, the Ki entry (in data set [2]; at Cytochrome P450 2C9) was “Not Active” in each case.

Consider `CCN(CC)CCNC(=O)c1cc(S(C)(=O)=O)ccc1OC` [TIAPRIDE], for which the IC50 entry (in data set [1] (cho-k1); at Cannabinoid receptor 1; at Melanocortin receptor 5; in data set [2]; in data set [3]; at Cytochrome P450 2C9) was “Not Active” throughout. Further, the Ki entry (in data set [2]; at Cytochrome P450 2C9) was “Not Active” each time.

For `CCCCOc1cc(CC2CNC(=O)N2)ccc1OC` (stereo not drawn) [RO-201724], the concentration for half-maximal inhibition (IC50) result (in data set [1] (cho-k1); on Cannabinoid receptor 1; on Melanocortin receptor 5; in data set [2]; in data set [3]; on Cytochrome P450 2C9) was “Not Active” in each case. Also, the Ki entry (in data set [2]; at Cytochrome P450 2C9) was “Not Active” each time.
